Assay [1] has as its system Dopamine DBS Cy3(+T)/BHQ-1 (int.) (DNA, aptamer) AAATACAACAAGAAAAAACTCTCGGGACGACGTCCAGTTTGAAGGTTCGTTCGCAGGTGTGGAGTGACGTCGTCCC
The assay can be described thus: fluorescence melting. Particulars: 1x PBS, 2 mM MgCl2; pH 8.0; 50 µM dopamine; derived from two Tm (50.3, 49.9); displacement strand 1:4.

Assay [2] has as its system Dopamine DBS FAM(+T)/BHQ-1 (DNA, aptamer, 6-FAM-modified dT (click, i6-FAMK) at 33) AAATACAACAAGAAAAAACTCTCGGGACGACGTCCAGTTTGAAGGTTCGTTCGCAGGTGTGGAGTGACGTCGTCCC …. The assay can be described thus: fluorescence melting. The following applies: 1x PBS, 2 mM MgCl2; pH 8.0; 50 µM dopamine; derived from two Tm (49.1, 48.9); displacement strand 1:4.
The test system of assay [3] is Dopamine MAB Cy3–Dab (DNA, aptamer, dabcyl-5-methyl-dC at 41 (3' end)) ACGCCAGTTTGAAGGTTCGTTCGCAGGTGTGGAGTGACGTC
Put plainly: fluorescence melting. The following applies: 1x PBS, 2 mM MgCl2; derived from two Tm (43.3 ± 1.0, 53.6 ± 0.3); 50 µM dopamine, pH 8.0.

Assay [4] has as its system Dopamine MAB FAM–BHQ-1 (DNA, aptamer) ACGCCAGTTTGAAGGTTCGTTCGCAGGTGTGGAGTGACGT
Put plainly: fluorescence quenching titration (molecular aptamer beacon). The following applies: 1x PBS, 2 mM MgCl2; apparent; pH 8.0, 25 °C.

Assay [5] concerns Dopamine DBS Cy3(+T)/BHQ-1 (term.) (DNA, aptamer) AAATACAACAAGAAAAAACTCTCGGGACGACGTCCAGTTTGAAGGTTCGTTCGCAGGTGTGGAGTGACGTCGTCCC
The assay can be described thus: fluorescence melting. The following applies: 1x PBS, 2 mM MgCl2; pH 8.0; 50 µM dopamine; derived from two Tm (50.8, 50.0); displacement strand 1:4.

In assay [6] the test system is Dopamine DBS Cy3–BHQ-1 (Position 2) (DNA, aptamer) AAATACAACAAGAAAAAACTCTCGGGACGACGACCAGTTTGAAGGTTCGTTCGCAGGTGTGGAGTGACGTCGTCCC
The assay can be described thus: fluorescence strand-displacement titration. Particulars: 1x PBS, 2 mM MgCl2; apparent; pH 8.0, 25 °C; displaced 42-nt strand, internal BHQ-1 (position 2), 4 eq.

Assay [7] deals with Dopamine DBS BHQ-1/Cy3 (1:1) (DNA, aptamer) AAATACAACAAGAAAAAACTCTCGGGACGACGCCAGTTTGAAGGTTCGTTCGCAGGTGTGGAGTGACGTCGTCCC
The assay can be described thus: fluorescence melting. The following applies: 1x PBS, 2 mM MgCl2; pH 8.0; 50 µM dopamine; derived from two Tm (51.0, 50.6); displacement strand 1:1.

The subject of assay [8] is Dopamine DBS FAM(+T)–BHQ-1 Terminal (DNA, aptamer, 6-FAM-dT (azide click) at 33) AAATACAACAAGAAAAAACTCTCGGGACGACGTACCAGTTTGAAGGTTCGTTCGCAGGTGTGGAGTGACGTCGTCCC
Put plainly: fluorescence strand-displacement titration. The following applies: 1x PBS, 2 mM MgCl2; apparent; pH 8.0, 25 °C; displaced 43-nt strand, 5'-BHQ-1 plus T, 4 eq.

Assay [9] deals with Dopamine DBS Cy3(+T)–BHQ-1 (DNA, aptamer) AAATACAACAAGAAAAAACTCTCGGGACGACGTACCAGTTTGAAGGTTCGTTCGCAGGTGTGGAGTGACGTCGTCCC
The assay can be described thus: fluorescence strand-displacement titration. Particulars: 1x PBS, 2 mM MgCl2; apparent; pH 8.0, 25 °C; displaced 42-nt 5'-BHQ-1 strand, 4 eq.

The test system of assay [10] is Dopamine DBS Cy3–BHQ-1 (Term.) (DNA, aptamer) AAATACAACAAGAAAAAACTCTCGGGACGACGACCAGTTTGAAGGTTCGTTCGCAGGTGTGGAGTGACGTCGTCCC
The assay can be described thus: fluorescence strand-displacement titration. The following applies: 1x PBS, 2 mM MgCl2; apparent; pH 8.0, 25 °C; displaced 43-nt strand, 5'-BHQ-1 plus T, 4 eq.

The subject of assay [11] is Dopamine DBS Cy3(+T)/BHQ-1 (DNA, aptamer) AAATACAACAAGAAAAAACTCTCGGGACGACGTCCAGTTTGAAGGTTCGTTCGCAGGTGTGGAGTGACGTCGTCCC
Put plainly: fluorescence melting. The following applies: 1x PBS, 2 mM MgCl2; pH 8.0; 50 µM dopamine; derived from two Tm (51.6, 50.9); displacement strand 1:4.

The test system of assay [12] is Dopamine DBS Cy3–BHQ-1 (Position 1/Adjacent) (DNA, aptamer) AAATACAACAAGAAAAAACTCTCGGGACGACGACCAGTTTGAAGGTTCGTTCGCAGGTGTGGAGTGACGTCGTCCC
Put plainly: fluorescence melting. Particulars: 1x PBS, 2 mM MgCl2; derived from two Tm (51.7 ± 0.1, 50.9 ± 0.1) of aptamer–displacement duplex; 50 µM dopamine, pH 8.0.

Assay [13] relates to Dopamine DBS Cy3/BHQ-1 (int.) (DNA, aptamer) AAATACAACAAGAAAAAACTCTCGGGACGACGCCAGTTTGAAGGTTCGTTCGCAGGTGTGGAGTGACGTCGTCCC
The assay can be described thus: fluorescence melting. The following applies: 1x PBS, 2 mM MgCl2; pH 8.0; 50 µM dopamine; derived from two Tm (50.9, 50.4); displacement strand 1:4.

For assay [14], the system named is Dopamine MAB BHQ-1–FAM (DNA, aptamer) ACGCCAGTTTGAAGGTTCGTTCGCAGGTGTGGAGTGACGT
Put plainly: fluorescence melting. Particulars: 1x PBS, 2 mM MgCl2; derived from two Tm (40.0 ± 0.2, 37.3 ± 0.1); 50 µM dopamine, pH 8.0.

Assay [15] concerns Dopamine DBS Cy3–BHQ-1 (Position 3) (DNA, aptamer) AAATACAACAAGAAAAAACTCTCGGGACGACGACCAGTTTGAAGGTTCGTTCGCAGGTGTGGAGTGACGTCGTCCC
Put plainly: fluorescence strand-displacement titration. Particulars: 1x PBS, 2 mM MgCl2; apparent; pH 8.0, 25 °C; displaced 42-nt strand, internal BHQ-1 (position 3), 4 eq.

Structures are written as SMILES.

As to `NCCc1ccc(O)c(O)c1`, the Tm in assay [1] is -0.4 °C; in [2] it was -0.2 °C; in assay [3], 10.3 °C; in assay [5] it was -0.8 °C; in assay [7] it was -0.4 °C; in assay [11] it was -0.7 °C. The Tm in assay [12] is -0.8 °C; in assay [13], -0.5 °C; in assay [14], -2.7 °C. In addition, the Kd in [4] turned out to be 3.0 ± 0.1 µM; in assay [6], 2.2 ± 0.7 µM; in assay [8], 10.2 ± 1.0 µM; in [9] it was 76.7 ± 5.5 µM; in [10] it was 142.9 ± 11.7 µM; in assay [15], 2.3 ± 0.3 µM.
